Biological target: KAT2A (Homo sapiens, UniProt Q92830)
Assay: KAT2A degradation, Western Blot (Jess), MOLM-13 cells
Type: cell-based
Set-up: degrader, Western blot
Settings: MOLM-13 cells, KAT2A, 24 h, Western Blot, vs DMSO; read-out: KAT2A MOLM-13 DC50
Description: MOLM-13 cells or NCI-H1048 cells were used for Western Blot analysis of KAT2A degradation. KAT2B degradation can be measured in a similar manner with NCI-H1048 cells.
MOLM-13 cells were maintained at 37° C. in 5% CO2 and 90% humidity in RPMI 1640 supplemented with 20% fetal bovine serum (FBS) and 1× penicillin/streptomycin. Cells were plated in full media at 1-2 million cells/2 mL in a 6-well tissue culture treated plate with or without compounds for 24 h at 37° C. in 5% CO2.
MOLM-13 cells or NCI-H1048 cells were washed with PBS, then lysed with RIPA buffer containing 1×protease and phosphatase inhibitors (SantaCruz Biotechnologies Cat #sc-24948A). Protein was isolated by centrifugation at 12,000×g for 10 minutes at 4° C. and supernatant was collected. Protein was quantified via Bradford assay. Samples were diluted to 4 μg lysate in 16 μL RIPA buffer and then 4 μL of Jess Sample Buffer. Samples were heated at 95° C. for 5 minutes. Samples were loaded onto 12-230 kDa Jess™ Separation Module, 8×25 capillary cartridges (SM-W004, Biotechne). Antibodies loaded were: Primary antibody for KAT2A (GCN5L2 (C26A10) Rabbit mAb (3305, CST)) and for KAT2B (PCAF (C14G9)) Rabbit mAb (3378, CST) at 1:1000 and Anti-Rabbit Detection Module for Jess™ (Cat No #DM-001, Biotechne). Signal was detected by chemiluminescence.
DC50 values were determined from percent reduction of protein as compared to the DMSO control.

Sequence of KAT2A (Q92830 whole entry): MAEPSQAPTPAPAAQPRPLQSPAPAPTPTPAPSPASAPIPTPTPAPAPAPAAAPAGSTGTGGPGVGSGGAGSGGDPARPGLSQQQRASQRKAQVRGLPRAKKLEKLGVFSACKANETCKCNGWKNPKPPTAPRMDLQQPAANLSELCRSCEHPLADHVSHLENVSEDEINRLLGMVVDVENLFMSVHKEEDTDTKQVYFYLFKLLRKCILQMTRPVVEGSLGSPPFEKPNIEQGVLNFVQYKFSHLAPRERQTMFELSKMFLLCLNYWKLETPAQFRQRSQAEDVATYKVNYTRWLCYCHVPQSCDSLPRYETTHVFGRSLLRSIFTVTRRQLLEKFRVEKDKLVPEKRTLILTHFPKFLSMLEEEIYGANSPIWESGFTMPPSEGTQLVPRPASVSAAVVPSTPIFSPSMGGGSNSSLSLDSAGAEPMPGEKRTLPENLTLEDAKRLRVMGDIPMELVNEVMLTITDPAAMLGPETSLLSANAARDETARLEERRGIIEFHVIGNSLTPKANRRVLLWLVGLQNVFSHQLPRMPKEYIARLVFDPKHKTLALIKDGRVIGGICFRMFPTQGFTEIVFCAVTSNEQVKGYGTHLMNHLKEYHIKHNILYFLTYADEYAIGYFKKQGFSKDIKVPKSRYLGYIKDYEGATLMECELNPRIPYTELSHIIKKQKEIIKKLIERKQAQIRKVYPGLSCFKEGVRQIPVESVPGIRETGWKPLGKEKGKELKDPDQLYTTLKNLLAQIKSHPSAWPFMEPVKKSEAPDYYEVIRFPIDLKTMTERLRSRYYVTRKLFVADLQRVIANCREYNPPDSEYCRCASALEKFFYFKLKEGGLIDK

`CN1C[C@H](Nc2cnn(C)c(=O)c2Br)C[C@H](c2ccc(C(=O)N3CCC(c4ccc5c(c4)CN(C4CCC(=O)NC4=O)C5=O)CC3)cc2)C1` (stereo partly drawn) [Compound 73] and `CN1C[C@H](Nc2cnn(C)c(=O)c2Cl)C[C@H](c2ccc(C(=O)N3CCC(c4ccc5c(c4)CN(C4CCC(=O)NC4=O)C5=O)CC3)cc2)C1` (stereo partly drawn) [Compound 77] fall in the same range of DC50: 1 to 30 nM for the first, 1 to 30 nM for the second.

First: CN1C[C@H](Nc2cnn(C)c(=O)c2Br)C[C@H](c2ccc(CN3CCN(Cc4ccc5c(c4)CN(C4CCC(=O)NC4=O)C5=O)CC3)cc2)C1 (stereo partly drawn) [Compound 74]
Second: CN1C[C@H](Nc2cnn(C)c(=O)c2Cl)C[C@H](c2ccc(CN3CCN(Cc4ccc5c(c4)CN(C4CCC(=O)NC4=O)C5=O)CC3)cc2)C1 (stereo partly drawn) [Compound 75]
The DC50 of the first is lower: under 1 nM for the first, 1 to 30 nM for the second.

`CN1C[C@H](Nc2cnn(C)c(=O)c2Cl)C[C@H](c2ccc(C(=O)N3CCN(Cc4ccc5c(c4)CN(C4CCC(=O)NC4=O)C5=O)CC3)cc2)C1` (stereo partly drawn) [Compound 76] and `CN1C[C@H](Nc2cnn(C)c(=O)c2Br)C[C@H](c2ccc(C(=O)N3CCN(Cc4cccc5c4CN(C4CCC(=O)NC4=O)C5=O)CC3)cc2)C1` (stereo partly drawn) [Compound 79] fall in the same range of DC50: 1 to 30 nM for the first, 1 to 30 nM for the second.

First: CN1C[C@H](Nc2cnn(C)c(=O)c2Br)C[C@H](c2ccc(CN3CCN(c4ccc(N5CCC(=O)NC5=O)cc4)CC3)cc2)C1 [Compound 78]
Second: CN1C[C@H](Nc2cnn(C)c(=O)c2Br)C[C@H](c2ccc(CN3CCN(c4cccc(N5CCC(=O)NC5=O)c4)CC3)cc2)C1 [Compound 101]
The DC50 of the first is higher: over 30 nM for the first, 1 to 30 nM for the second.

`CN1C[C@H](Nc2cnn(C)c(=O)c2Br)C[C@H](c2ccc(C(=O)N3CCN(Cc4ccc(C5CCC(=O)NC5=O)cc4)CC3)cc2)C1` (stereo partly drawn) [Compound 80] and `CN1C[C@H](Nc2cnn(C)c(=O)c2Br)C[C@H](c2ccc(C(=O)N3CCN(Cc4cccc(C5CCC(=O)NC5=O)c4)CC3)cc2)C1` (stereo partly drawn) [Compound 100] cannot be ordered by DC50: under 1 nM for the first, under 1 nM for the second.

First: CN1C[C@H](Nc2cnn(C)c(=O)c2Br)C[C@H](c2ccc(C(=O)N3CCC(c4ccc(C5CCC(=O)NC5=O)cc4)CC3)cc2)C1 (stereo partly drawn) [Compound 81]
Second: CN1C[C@H](Nc2cnn(C)c(=O)c2Br)C[C@H](c2ccc(C(=O)N3CCC(c4ccc(NC5CCC(=O)NC5=O)cc4)CC3)cc2)C1 (stereo partly drawn) [Compound 115]
The DC50 of the first is higher: 1 to 30 nM for the first, under 1 nM for the second.

`CN1C[C@H](Nc2cnn(C)c(=O)c2Br)C[C@H](c2ccc(C(=O)N3CCC4(CCN(c5ccc(C6CCC(=O)NC6=O)cc5)C4)C3)cc2)C1` (stereo partly drawn) [Compound 82] and `CN1C[C@H](Nc2cnn(C)c(=O)c2Br)C[C@H](c2ccc(CN3CCC4(CCN(c5ccc(C6CCC(=O)NC6=O)cc5)C4)C3)cc2)C1` (stereo partly drawn) [Compound 89] cannot be ordered by DC50: under 1 nM for the first, under 1 nM for the second.

First: CN1C[C@H](Nc2cnn(C)c(=O)c2Br)C[C@H](c2ccc(C(=O)N3CCC(c4cccc5c4CN(C4CCC(=O)NC4=O)C5=O)CC3)cc2)C1 (stereo partly drawn) [Compound 83]
Second: CN1C[C@H](Nc2cnn(C)c(=O)c2Cl)C[C@H](c2ccc(C(=O)N3CCC(c4cccc5c4CN(C4CCC(=O)NC4=O)C5=O)CC3)cc2)C1 (stereo partly drawn) [Compound 91]
The DC50 of the first is lower: 1 to 30 nM for the first, over 30 nM for the second.

First: CN1C[C@H](Nc2cnn(C)c(=O)c2)C[C@H](c2ccc(CN3CCC(c4ccc5c(c4)CN(C4CCC(=O)NC4=O)C5=O)CC3)cc2)C1 (stereo partly drawn) [Compound 85]
Second: CN1C[C@H](Nc2cnn(C)c(=O)c2Br)C[C@H](c2ccc(CN3CCC(c4ccc5c(c4)CN(C4CCC(=O)NC4=O)C5=O)C3)cc2)C1 (stereo partly drawn) [Compound 113]
The DC50 of the first is higher: over 30 nM for the first, under 1 nM for the second.

First: CN1C[C@H](Nc2cnn(C)c(=O)c2Br)C[C@H](c2ccc(CN3CCC(c4ccc(C5CCC(=O)NC5=O)cc4)CC3)cc2)C1 (stereo partly drawn) [Compound 87]
Second: CN1C[C@H](Nc2cnn(C)c(=O)c2Br)C[C@H](c2ccc(CNC3CN(c4ccc(C5CCC(=O)NC5=O)cc4)C3)cc2)C1 (stereo partly drawn) [Compound 103]
The DC50 of the first is higher: 1 to 30 nM for the first, under 1 nM for the second.

First: CN1C[C@H](Nc2cnn(C)c(=O)c2Br)C[C@H](c2ccc(CN3CCC4(CC3)CCN(c3ccc(C5CCC(=O)NC5=O)cc3)CC4)cc2)C1 (stereo partly drawn) [Compound 88]
Second: CN1C[C@H](Nc2cnn(C)c(=O)c2Cl)C[C@H](c2ccc(CN3CCN(c4ccc(C5CCC(=O)NC5=O)cc4)CC3)cc2)C1 (stereo partly drawn) [Compound 104]
The DC50 of the first is lower: under 1 nM for the first, 1 to 30 nM for the second.

First: CN1C[C@H](Nc2cnn(C)c(=O)c2Br)C[C@H](c2ccc(CN3CCC(c4cccc5c4CN(C4CCC(=O)NC4=O)C5=O)CC3)cc2)C1 (stereo partly drawn) [Compound 92]
Second: CN1C[C@H](Nc2cnn(C)c(=O)c2Cl)C[C@H](c2ccc(CN3CCC(c4cccc5c4CN(C4CCC(=O)NC4=O)C5=O)CC3)cc2)C1 (stereo partly drawn) [Compound 94]
The DC50 of the first is lower: 1 to 30 nM for the first, over 30 nM for the second.

`CN1C[C@H](Nc2cnn(C)c(=O)c2Br)C[C@H](c2ccc(C(=O)N3CC(Oc4ccc5c(c4)CN(C4CCC(=O)NC4=O)C5=O)C3)cc2)C1` (stereo partly drawn) [Compound 93] and `CN1C[C@H](Nc2cnn(C)c(=O)c2Br)C[C@H](c2ccc(CN3CC(Oc4ccc5c(c4)C(=O)N(C4CCC(=O)NC4=O)C5=O)C3)cc2)C1` (stereo partly drawn) [Compound 95] cannot be ordered by DC50: under 1 nM for the first, under 1 nM for the second.

`CN1C[C@H](Nc2cnn(C)c(=O)c2Br)C[C@H](c2ccc(C(=O)N3CCC(N4CCN(c5ccc6c(c5)C(=O)N(C5CCC(=O)NC5=O)C6=O)CC4)CC3)cc2)C1` (stereo partly drawn) [Compound 96] and `CN1C[C@H](Nc2cnn(C)c(=O)c2Br)C[C@H](c2ccc(C(=O)N3CCN(CC4CCN(c5ccc6c(c5)C(=O)N(C5CCC(=O)NC5=O)C6=O)CC4)CC3)cc2)C1` (stereo partly drawn) [Compound 111] cannot be ordered by DC50: under 1 nM for the first, under 1 nM for the second.

Compared with `CN1C[C@H](Nc2cnn(C)c(=O)c2Br)C[C@H](c2ccc(C(=O)N3CCC4(CC3)CN(c3ccc5c(c3)C(=O)N(C3CCC(=O)NC3=O)C5=O)C4)cc2)C1` (stereo partly drawn) [Compound 97], `CN1C[C@H](Nc2cnn(C)c(=O)c2Br)C[C@H](c2ccc(C(=O)N3CCC4(CCN(c5ccc6c(c5)C(=O)N(C5CCC(=O)NC5=O)C6=O)C4)C3)cc2)C1` (stereo partly drawn) [Compound 98] is higher in DC50: under 1 nM for the first, 1 to 30 nM for the second.

`CN1C[C@H](Nc2cnn(C)c(=O)c2Br)C[C@H](c2ccc(CN3CCN(Oc4cccc5c4CN(C4CCC(=O)NC4=O)C5=O)CC3)cc2)C1` (stereo partly drawn) [Compound 99] and `CN1C[C@H](Nc2cnn(C)c(=O)c2Br)C[C@H](c2ccc(CN3CCN(c4cccc5c4CN(C4CCC(=O)NC4=O)C5=O)CC3)cc2)C1` (stereo partly drawn) [Compound 116] cannot be ordered by DC50: under 1 nM for the first, under 1 nM for the second.

Going from `CN1C[C@H](Nc2cnn(C)c(=O)c2Br)C[C@H](c2ccc(C(=O)N3CCN(Cc4ccc(N5CCC(=O)NC5=O)cc4)CC3)cc2)C1` [Compound 102] to `CN1C[C@H](Nc2cnn(C)c(=O)c2Br)C[C@H](c2ccc(C(=O)N3CCC(F)(CN4CCN(c5ccc6c(c5)C(=O)N(C5CCC(=O)NC5=O)C6=O)CC4)CC3)cc2)C1` (stereo partly drawn) [Compound 112], the DC50 falls from over 30 nM to under 1 nM.

Compared with `CN1C[C@H](Nc2ccn(C)c(=O)c2Cl)C[C@H](c2ccc(COc3ccc4c(c3)C(=O)N(C3CCC(=O)NC3=O)C4=O)cc2)C1` (stereo partly drawn) [Compound 105], `CN1C[C@H](Nc2cnn(C)c(=O)c2Br)C[C@H](c2ccc(CNc3ccc4c(c3)C(=O)N(C3CCC(=O)NC3=O)C4=O)cc2)C1` (stereo partly drawn) [Compound 106] is lower in DC50: 1 to 30 nM for the first, under 1 nM for the second.

`CN1C[C@H](Nc2cnn(C)c(=O)c2Br)C[C@H](c2ccc(C(=O)N3CCC(CN4CCC(c5ccc6c(c5)C(=O)N(C5CCC(=O)NC5=O)C6=O)CC4)CC3)cc2)C1` (stereo partly drawn) [Compound 107] and `CN1C[C@H](Nc2cnn(C)c(=O)c2Br)C[C@H](c2ccc(CN3CCC4(CC3)CN(c3ccc5c(c3)C(=O)N(C3CCC(=O)NC3=O)C5=O)C4)cc2)C1` (stereo partly drawn) [Compound 108] cannot be ordered by DC50: under 1 nM for the first, under 1 nM for the second.

`CN1C[C@H](Nc2cnn(C)c(=O)c2Br)C[C@H](c2ccc(CN3CCC4(CCN(c5ccc6c(c5)C(=O)N(C5CCC(=O)NC5=O)C6=O)C4)C3)cc2)C1` (stereo partly drawn) [Compound 109] showed a DC50 of under 1 nM.

Reference: patent US20260306640A1, “TECHNOLOGIES TARGETING CELL STATES” (Auron Therapeutics, Inc., priority 2023, published 2026)
